Laboratory results taken from PubChem BioAssay (NCI).
Several values for one entry are separate records, joined by “and”; a condition that tells them apart may be missing. Identical values can stand only once.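 Tested at 5 concentrations; 48 h exposure; 96-well plates; endpoints linearly interpolated, else capped at highest concentration. GI50 marks 50% less growth. TGI denotes the concentration required for complete inhibition of growth.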

Experiments:
Assay in all cases: growth of human tumour cells (NCI), 48 h
[1] = system: NCI-H23 lung
[2] = system: HOP-92 NSCLC
[3] = system: K-562 leukemia
[4] = system: M14 melanoma
[5] = system: SK-MEL-5 melanoma
[6] = system: MDA-MB-435
[7] = system: OVCAR-3 ovarian
[8] = system: UACC-257 melanoma
[9] = system: OVCAR-4 ovarian
[10] = system: HOP-62 NSCLC

SMILES	GI50 [1]	TGI [1]	GI50 [2]	TGI [2]	GI50 [3]	TGI [3]	GI50 [4]	TGI [4]	GI50 [5]	TGI [5]	GI50 [6]	TGI [6]	GI50 [7]	TGI [7]	GI50 [8]	TGI [8]	GI50 [9]	TGI [9]	GI50 [10]	TGI [10]
Cc1ccc(C(=O)c2sc3nc4c(cc3c2N)CCCC4)c(C)c1	0.776 µM	> 100 µM	3.36 µM	87.6 µM	0.0934 µM	> 100 µM	0.19 µM	> 100 µM	0.32 µM	> 37.9 µM	0.0258 µM	0.086 µM	0.183 µM	> 31.9 µM	0.539 µM	> 100 µM	1.97 µM	> 100 µM	0.465 µM	> 100 µM
COc1cccc(-c2nn(-c3ccccc3)cc2-c2ccnc(NCCCNC(=O)c3cccc(C(F)(F)F)c3)c2)c1	4.49 µM	24.2 µM	2.48 µM	17.4 µM	3.69 µM	31.3 µM	4.63 µM	30.3 µM	1.54 µM	3.34 µM	3.27 µM	17.1 µM	4.52 µM	19.7 µM	4.4 µM	15.8 µM	4.22 µM	32.2 µM	10.3 µM	30.6 µM
COc1cccc(/C=C/c2nc3c(cnn3-c3ccccc3)c(=O)[nH]2)c1	> 100 µM	> 100 µM	> 100 µM	> 100 µM	–	> 100 µM	> 39 µM	> 100 µM	> 96.6 µM	> 100 µM	0.447 µM	> 72.4 µM	24.9 µM	> 100 µM	> 100 µM	> 100 µM	> 34.9 µM	> 100 µM	7.19 µM	> 100 µM
O=C(CSCC(=O)N/N=C/c1ccccc1O)N/N=C\c1ccccc1O	3.33 µM	> 100 µM	1.73 µM	> 100 µM	2.39 µM	> 100 µM	1.51 µM	12.5 µM	1.86 µM	> 100 µM	3.44 µM	> 100 µM	4.76 µM	> 100 µM	3.09 µM	22.5 µM	1.72 µM	> 100 µM	1.31 µM	> 100 µM
CCOC(=O)Nc1nc2ccccc2[nH]1	8.17 µM and > 21.9 µM	> 100 µM	> 100 µM	> 100 µM	3.48 µM and 1.85 µM	> 100 µM	3.48 µM and 3.43 µM	> 100 µM	3.5 µM and 2.55 µM	> 100 µM	1.28 µM and 0.674 µM	4 µM	4.09 µM and 2.19 µM	20.4 µM and 5.61 µM	3.77 µM	> 100 µM	28.8 µM and 60.6 µM	> 100 µM	6.08 µM and > 22.9 µM	> 100 µM
CCC1C(C)C=NN1c1nc(N)nc(C(C#N)=Nc2ccc(N(C)C)cc2)n1 (stereo not given)	13.8 µM	> 50 µM	12.1 µM	> 50 µM	2.73 µM	> 50 µM	9.11 µM	16.5 µM	9.09 µM	17.1 µM	16.7 µM	> 50 µM	10.1 µM	21.8 µM	> 50 µM	> 50 µM	16.3 µM	> 50 µM	18.8 µM	> 50 µM
C=C1c2ccccc2C(=O)c2c1c1c(C(=O)OC)c(OC(=O)OCc3ccc([N+](=O)[O-])cc3)ccc1n2Cc1ccccc1	4.22 µM	17.9 µM	2.29 µM	7.59 µM	2.55 µM	> 100 µM	27.6 µM	> 100 µM	29.1 µM	64.3 µM	23.5 µM	> 100 µM	2.39 µM	8.05 µM	29.8 µM	> 100 µM	23.2 µM	> 100 µM	13.3 µM	29.3 µM
O=C(Nc1cccc(-n2cc(-c3ccncc3)c(-c3ccc(O)c(Cl)c3)n2)c1)c1ccc2c(c1)OCCO2	> 100 µM	> 100 µM	2.26 µM	> 100 µM	4.26 µM	> 100 µM	5.83 µM	> 100 µM	3.95 µM	> 100 µM	> 100 µM	> 100 µM	–	–	> 100 µM	> 100 µM	> 100 µM	> 100 µM	> 100 µM	> 100 µM
C=CC(COC(=O)C(C)(C)OC(C)=O)c1ccc(OC(=O)C(C)C)c(OC)c1 (stereo not given)	–	39.3 µM	–	11.7 µM	–	> 63.5 µM	–	21.8 µM	–	27.8 µM	–	27.8 µM	–	28.9 µM	–	31.5 µM	–	22.4 µM	–	23.5 µM
O=C1/C=C/[C@@H](O)[C@@H]2C[C@@H](O)C[C@H]2/C=C/CCC[C@H](CCc2ccc3ncccc3c2)O1	0.219 µM	1.18 µM	2.77 µM	> 100 µM	0.386 µM	> 100 µM	0.327 µM	18.3 µM	0.0567 µM	0.162 µM	0.318 µM	13.3 µM	0.518 µM	> 100 µM	0.13 µM	5.95 µM	0.253 µM	–	0.317 µM	–
CN(C)C(=O)OCc1nc2c(N3CCOCC3)nc(-c3ccccc3)nc2n1C	1.62 µM	3.35 µM	0.399 µM	1.24 µM	0.332 µM	3.17 µM	0.609 µM	1.9 µM	1.42 µM	2.73 µM	0.891 µM	2.27 µM	0.203 µM	0.433 µM	1.36 µM	2.93 µM	0.79 µM	2.16 µM	1.72 µM	4.46 µM
Cc1cc(C(=O)Nc2n[nH]c3ccccc23)n[nH]1	> 100 µM	> 100 µM	> 100 µM	> 100 µM	> 100 µM	> 100 µM	> 100 µM	> 100 µM	> 100 µM	> 100 µM	> 100 µM	> 100 µM	> 100 µM	> 100 µM	> 100 µM	> 100 µM	> 100 µM	> 100 µM	> 100 µM	> 100 µM
C[C@]12CC[C@@H]3c4ccc(O)cc4CC[C@H]3[C@@H]1CC[C@@H]2NS(=O)(=O)c1ccc(Br)cc1	3.44 µM	15.5 µM	1.76 µM	4.93 µM	3.08 µM	> 100 µM	2.14 µM	4.66 µM	1.76 µM	3.22 µM	1.84 µM	3.97 µM	2.18 µM	4.43 µM	2.56 µM	8.12 µM	3.01 µM	12.4 µM	2.77 µM	6.14 µM
O=C(O)c1cc2ccccc2c2c3c(ccc12)OCO3	188 µM	584 µM	18.7 µM	96.5 µM	259 µM	> 1000 µM	179 µM	493 µM	133 µM	281 µM	172 µM	519 µM	183 µM	468 µM	220 µM	600 µM	170 µM	808 µM	176 µM	697 µM
N#Cc1ccc(-c2c(-c3ncn[nH]3)sc(N3CCOCC3)c2C#N)c(F)c1	3.32 µM	> 100 µM	0.0663 µM	0.973 µM	5.52 µM	> 100 µM	–	–	2.29 µM	13.7 µM	0.995 µM	17 µM	0.502 µM	7.89 µM	0.418 µM	8.85 µM	2.82 µM	36.6 µM	1.05 µM	21.9 µM
NCCCCCNc1noc(Cc2c[nH]c3cc(Br)ccc23)n1	1.76 µM	8.75 µM	4.62 µM	33.6 µM	0.469 µM	14.7 µM	0.445 µM	10.3 µM	2.08 µM	16.2 µM	0.327 µM	2.33 µM	1.4 µM	3.39 µM	11.9 µM	25.5 µM	6.7 µM	52.4 µM	3.79 µM	29.3 µM
C/C=C/C/C=C/[C@H](C)C[C@H](O)[C@@H]1C[C@@H]2O[C@H]2/C=C/[C@@H]2OC(C)(C)O[C@H]2/C=C/C[C@H](C)CC(=O)O1	6.08 µM	> 100 µM	6.71 µM	91.6 µM	4.79 µM	> 100 µM	12.9 µM	> 100 µM	4.39 µM	44 µM	24 µM	> 100 µM	12.4 µM	> 100 µM	56.7 µM	> 100 µM	9.9 µM	> 100 µM	15.1 µM	90.2 µM
C[N+](C)(C)CC1CCC(C[N+](C)(C)C)C1=O (stereo not given)	–	8.27 µM	–	2.28 µM	–	1.34 µM	–	3.35 µM	–	23.8 µM	–	30.7 µM	–	5.32 µM	–	9.05 µM	–	10.8 µM	–	36.1 µM
CC(C)c1ccc(C2NC(=S)NC3=C2c2ccccc2C3=O)cc1 (stereo not given)	–	> 59.2 µM	–	48.3 µM	–	> 60 µM	–	> 57 µM	–	52.8 µM	–	21.4 µM	–	> 56.7 µM	–	> 58.7 µM	–	53.8 µM	–	> 57.1 µM
COc1cc(-n2cc(-c3ccccc3)[nH]c2=O)cc(OC)c1OC	> 100 µM	> 100 µM	20.6 µM	83.1 µM	83.9 µM	> 100 µM	> 100 µM	> 100 µM	39.4 µM	> 100 µM	76.3 µM	> 100 µM	23.2 µM	> 100 µM	–	–	17.1 µM	52.8 µM	39.1 µM	> 100 µM
CN1CCN(c2ccc(OC(F)(F)F)c(Nc3ncc4c(n3)-c3c(c(C(N)=O)nn3CCO)CC4)c2)CC1	0.0397 µM and 0.0732 µM	17.6 µM and > 10 µM	0.545 µM and 0.242 µM	14.3 µM and > 3.62 µM	0.0375 µM and 0.0269 µM	19.6 µM	0.0404 µM and 0.0428 µM	–	0.106 µM and 0.309 µM	16.7 µM and > 10 µM	0.0165 µM and 0.0188 µM	0.0542 µM and 0.0634 µM	0.037 µM and 0.0424 µM	18.2 µM and > 10 µM	–	28.6 µM and > 6.61 µM	6.92 µM and 1.39 µM	41.2 µM and > 10 µM	0.0723 µM and 0.0547 µM	27.1 µM and > 10 µM
Nc1ccccc1C#C/C=C\C#CC#C/C=C\C#Cc1ccccc1N	5.17 µM	23.3 µM	1.77 µM	8.35 µM	0.781 µM	> 100 µM	–	–	8.43 µM	22.9 µM	2.85 µM	9.72 µM	2.78 µM	14 µM	8.96 µM	32.4 µM	14.6 µM	92.8 µM	10.5 µM	28.1 µM
O=[N+]([O-])c1cccc(-c2nc(-c3ccc(Cl)cc3Cl)cn2-c2ccccc2)c1	5.15 µM	> 27.1 µM	0.105 µM	22.7 µM	> 9.26 µM	> 33.3 µM	1.45 µM	> 14.9 µM	6.78 µM	> 33.3 µM	0.763 µM	2.71 µM	0.458 µM	0.945 µM	1.41 µM	10.7 µM	0.58 µM	1.12 µM	1.39 µM	7.56 µM
CCOC(=O)C(Cc1c[nH]c2cc(N(CCO)CCO)ccc12)(NC(C)=O)C(=O)OCC	491 µM	> 1000 µM	> 1000 µM	> 1000 µM	81.7 µM	501 µM	517 µM	> 1000 µM	–	> 1000 µM	34.6 µM and 50.1 µM	200 µM	186 µM	726 µM	> 1000 µM	> 1000 µM	> 1000 µM	> 1000 µM	> 1000 µM	> 1000 µM
[N-]=[N+]=NCCCn1c2c(c3ccc([N+](=O)[O-])cc3c1=O)C(=O)c1cc3c(cc1-2)OCO3	< 0.01 µM	< 0.01 µM	2.56 µM	> 33.5 µM	–	> 100 µM	< 0.01 µM	< 0.01 µM	< 0.0317 µM	0.196 µM	< 0.042 µM	1.49 µM	–	2.87 µM	0.495 µM	15.2 µM	4.83 µM	> 100 µM	–	–
Nc1nonc1-c1nc2ccccc2n1Cc1ccc(F)cc1	87 µM	> 100 µM	4.04 µM	36.7 µM	4.37 µM	> 100 µM	4.64 µM	> 100 µM	–	–	1.87 µM	5.89 µM	5.8 µM	> 100 µM	> 100 µM	> 100 µM	> 100 µM	> 100 µM	14.6 µM	> 100 µM
